Laboratory results taken from paper PMC5268383, “Inhibition of STAT3 by Anticancer Drug Bendamustine” (PLoS ONE, 2017).
pIC50: −log10 of the molar value. “Also recorded” adds a separate entry of the source.

Tests used:
[1] = biological target: T1, STAT3-CFP / STAT3-YFP in HEK293 cells (Homo sapiens, UniProt P40763); assay: FRET assay of STAT3 dimerization; type: cell-based; conditions: HEK293, 10, 20 or 50 μM, pretreatment before 50 ng/mL IL-6 stimulation
T1 construct: expressed in transfected cells; host or cells: HEK293
T1 sequence (P40763 whole entry): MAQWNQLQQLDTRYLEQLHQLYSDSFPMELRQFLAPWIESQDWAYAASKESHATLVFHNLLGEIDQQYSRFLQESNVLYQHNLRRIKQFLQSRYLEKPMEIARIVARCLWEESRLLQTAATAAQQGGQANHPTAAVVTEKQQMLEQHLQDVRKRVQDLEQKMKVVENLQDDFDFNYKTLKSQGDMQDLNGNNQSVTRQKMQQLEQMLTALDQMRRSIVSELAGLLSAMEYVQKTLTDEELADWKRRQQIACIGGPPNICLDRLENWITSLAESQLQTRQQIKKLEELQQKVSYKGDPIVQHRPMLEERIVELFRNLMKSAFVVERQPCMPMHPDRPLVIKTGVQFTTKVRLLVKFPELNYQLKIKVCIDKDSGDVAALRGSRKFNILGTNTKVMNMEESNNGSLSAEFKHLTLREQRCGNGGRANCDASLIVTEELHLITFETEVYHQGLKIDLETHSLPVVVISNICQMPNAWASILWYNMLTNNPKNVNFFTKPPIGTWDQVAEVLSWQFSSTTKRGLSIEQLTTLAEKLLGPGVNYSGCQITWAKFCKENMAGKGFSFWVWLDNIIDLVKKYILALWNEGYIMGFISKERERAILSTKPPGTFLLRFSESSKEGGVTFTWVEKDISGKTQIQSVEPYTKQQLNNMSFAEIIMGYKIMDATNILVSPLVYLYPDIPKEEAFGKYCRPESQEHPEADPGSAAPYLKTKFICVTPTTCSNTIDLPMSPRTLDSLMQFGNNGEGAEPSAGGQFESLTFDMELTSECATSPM
Procedure: The expression vectors for the fusion proteins STAT3-CFP and STAT3-YFP were prepared by the addition of STAT3 cDNA to pAmCyan1-N1 and pZsyellow1-N1. The vector mixture (1:1) was transfected into HEK293 cells with Lipofectamine 2000. The cells were cultured with 2% FBS DMEM for 48 h in a 96-well microtiter plate, treated with 0, 10, 20, or 50 μM BENDA or HP2 in a final DMSO concentration of 0.2% for 24 h, and then stimulated with 50 ng/mL IL-6 for a further 1 h. Fluorescence signals were measured (SpectraMax M5SK). The signals measured by FRET (excitation/emission: 436/528 nm) were corrected for crosstalk signals from cyan (excitation/emission: 436/488 nm) and yellow (excitation/emission: 517/528 nm).

[2] = biological target: T2, STAT3 Cys550 mutant (C550A) (Homo sapiens, UniProt P40763, C550A); assay: SH2 binding AlphaScreen assay with Cys550 mutant recombinant STAT3; conditions: 100 μM BENDA, 375 nM mutant STAT3, 30 min
T2 construct: Full-length cDNAs were obtained from a human cDNA library by PCR; Avi-tag (N); 6His-tag (N); made in house; host or cells: Escherichia coli (pET-28a; host inferred to be the same BirA-BL21 as for wild type)
T2 sequence (P40763 whole entry C550A): as the sequence (P40763 whole entry) above, with C550A counted along it
Procedure: Point mutations were introduced into recombinant human STAT3 (rhSTAT3) by inverse PCR. We mutated Cys468, Cys542, Cys550, Cys687, and Cys712 near the SH2 domain to alanine. Inverse PCR was performed by using pBluescript II KS (+) as a template, KOD-Plus-ver. 2 (Toyobo, Osaka, Japan), and the following oligonucleotide primer set: Cys468 (forward: 5’-TCCAACATCG CTCAGATGCC AAATG-3’, reverse: 5′-GATCACCACA ACTGGCAAGG AGTGG-3′); Cys542 (forward: 5′-GAATTATTCAGGGGCTCAGATCACATGGGCTAAAT-3′, reverse: 5′-ACACCAGGTC CCAAGAGTTT CTCTGCC-3′); Cys550 (forward: 5′-GCTAAATTTG CCAAAGAAAA CATGGCTGGC-3′, reverse: 5′-CCATGTGATC TGACACCCTG AATAATTCA CACC-3′); Cys687 (forward: 5′-GGAAAGTATG CTCGGCCAGA GAGCCAG-3′, reverse: 5′-GAATGCCTCC TCCTTGGGAA TGTCAGG-3′); and Cys712 (forward: 5′-AAGTTTATCG CTGTGACACC AACGACCTGC-3′, reverse: 5′-GGTCTTCAGG TATGGGGCAG CGCTAC-3′). Inverse PCR (1 × PCR buffer, 1.5 mM MgSO4, 15 pmol 5′ primer and 3′ primer, 0.2 mM dNTPs, 50 ng STAT3 cDNA, 1 U KOD Plus) was performed under the following conditions: 2 min at 94°C, (10 s at 98°C, and 6.5 min at 68°C)×7 cycles. The amplified fragment was ligated by using Ligation High ver. 2 (Toyobo). The resultant plasmid was cloned into the HindIII/XhoI sites of modified pET-28a (+). The nucleotides coding for human mutant STAT3 in pET-28a (+) were named mutant STAT3 His-Avi-pET28a (+). […]

rhSTAT3 = biological target: T3, rhSTAT3 (Homo sapiens, UniProt P40763); assay: Competition assay with cysteine-blocking reagent Alexa Fluor 488 C5 maleimide; type: binding; conditions: 2 h, 10 μM Alexa Fluor 488 C5 maleimide
T3 construct: Full-length cDNAs were obtained from a human cDNA library by PCR; Avi-tag (biotinylated in BirA-BL21) (N); made in house; host or cells: Escherichia coli BirA-BL21
T3 sequence (P40763 whole entry): as the sequence (P40763 whole entry) above
Procedure: rhSTAT3 (0.89 μM) in 100 mM HEPES was incubated with 10 μM Alexa Fluor 488 C5 maleimide (Invitrogen, Paisley, UK), a thiol-reactive probe, in the presence or absence of 50 or 100 μM BENDA or HP2 for 2 h at room temperature. Samples were diluted in SDS-PAGE sample buffer without boiling or 2-mercaptoethanol and run on an SDS-PAGE gel. The protein was transferred to a nitrocellulose membrane and then blotted with Ni-HRP. The Alexa-labeled rhSTAT3 was analyzed by fluorescence (excitation/emission: 493/516 nm) and western blotting with Ni-HRP.

[3] = system: c-Myc protein in MDA-MB-468 cells; assay: Western blotting of c-Myc protein; type: cell-based, human; conditions: MDA-MB-468, 50 or 100 μM, 24 h
Procedure: Cells were treated with PhosphoSafe Extraction Reagent. Total proteins (40 μg) were subjected to SDS-PAGE and then transferred onto a nitrocellulose membrane. Membranes were blocked in 5% skim milk in TBS/0.1% Tween 20, incubated with primary antibodies diluted at 1:1000 in 1.5% skim milk in TBS (pH 7.4)/0.1% Tween 20 overnight at 4°C, and then incubated with HRP-conjugated secondary antibodies diluted at 1:5000 in TBS (pH 7.4)/0.1% Tween 20 for 1 h at room temperature. Immunoblots were developed with a chemiluminescent substrate.

[4] = biological target: T4, recombinant human STAT3 SH2 domain (Homo sapiens, UniProt P40763); assay: AlphaScreen SH2 binding assay, STAT3
T4 construct: Full-length cDNAs were obtained from a human cDNA library by PCR; Avi-tag (biotinylated in BirA-BL21) (N); made in house; host or cells: Escherichia coli BirA-BL21
T4 sequence (P40763 whole entry, the tested form may be a part): as the sequence (P40763 whole entry) above
Procedure: (§1) AlphaScreen assays were performed in a final reaction volume of 25 μL of the assay buffer, containing 10 mM HEPES-NaOH (pH 7.4), 50 mM NaCl, 1 mM EDTA (pH 8.0), 0.1% NP-40, and 10 ng/mL BSA in a 96-well microtiter plate at 25°C. The labeled Phospho-Tyr (pTyr) peptide probe was 5-carboxyfluorescein (FITC)-GpYLPQTV for STAT3, FITC-GpYDKPHVL for STAT1, and FITC-PSpYVNVQN for Grb2. A DMSO solution of BENDA was incubated with 50 nM of each SH2-containing protein for 15 min, 50 nM of the corresponding FITC-pTyr peptide was added, and the mixture was incubated for 90 min. Streptavidin-coated donor beads and anti-FITC acceptor beads were added and incubated for 90 min before the signals were measured with an Envision Xcite plate reader (PerkinElmer Life Sciences, Waltham, MA, USA).

STAT1 SH2 = biological target: T5, STAT1 SH2 (Homo sapiens, UniProt P42224); assay: AlphaScreen SH2 binding assay, STAT1
T5 construct: Avi-tag (N); 6His-tag (N)
T5 sequence (P42224 whole entry): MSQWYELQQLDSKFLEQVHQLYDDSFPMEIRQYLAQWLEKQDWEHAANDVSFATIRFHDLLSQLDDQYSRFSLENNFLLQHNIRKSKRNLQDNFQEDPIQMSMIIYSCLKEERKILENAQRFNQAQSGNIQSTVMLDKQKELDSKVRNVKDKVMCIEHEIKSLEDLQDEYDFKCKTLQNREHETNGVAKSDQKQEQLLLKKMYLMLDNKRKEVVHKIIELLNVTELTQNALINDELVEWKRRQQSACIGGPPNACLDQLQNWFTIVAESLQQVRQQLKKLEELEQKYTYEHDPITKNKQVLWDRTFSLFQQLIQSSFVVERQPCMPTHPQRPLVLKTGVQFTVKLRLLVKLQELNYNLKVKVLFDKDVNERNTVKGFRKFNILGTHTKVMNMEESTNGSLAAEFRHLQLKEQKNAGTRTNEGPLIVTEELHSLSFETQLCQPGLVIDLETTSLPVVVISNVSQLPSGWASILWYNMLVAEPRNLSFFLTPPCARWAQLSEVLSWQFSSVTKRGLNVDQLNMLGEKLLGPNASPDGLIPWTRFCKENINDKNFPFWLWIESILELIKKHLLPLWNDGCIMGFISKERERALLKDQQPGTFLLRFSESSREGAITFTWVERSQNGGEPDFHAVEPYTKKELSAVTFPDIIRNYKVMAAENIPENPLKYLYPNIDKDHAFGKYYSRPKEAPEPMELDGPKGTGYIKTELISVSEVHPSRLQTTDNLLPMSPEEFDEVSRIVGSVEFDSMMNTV
Procedure: as §1

In the case of `Cn1c(CCCC(=O)O)nc2cc(N(CCCl)CCCl)ccc21` [BENDA, 4-{5-[bis(2-chloroethyl)amino]-1-methyl-2-benzimidazolyl} butyric acid], the “Effect on FRET signals (STAT3 dimerization)” value [1] was “reduced the FRET signals”, the inhibition at 100 µM [2] was 3% and the “Fluorescence intensity of Alexa-labeled rhSTAT3 (reduced to)” value (rhSTAT3; 50 μM compound) was 62%. For the same compound, the “Fluorescence intensity of Alexa-labeled rhSTAT3 (reduced to)” value (rhSTAT3; 100 μM compound) was 52%, the “Expression of c-Myc protein” value [3] was “inhibited the expression of c-Myc protein” and the pIC50 [4] was 5.13. The “SH2 binding inhibition in presence of 2-mercaptoethanol” value ([4]; 200 μM (0.2 mM) 2-mercaptoethanol, data not shown) was “did not inhibit; also recorded: wholly inactivated”, the “SH2 inhibitory activity in presence of excess L-cysteine” value ([4]; 200 μM (0.2 mM) L-cysteine added to assay mixture) was “attenuated; also recorded: wholly inactivated” and the pIC50 (STAT1 SH2) was 4.22.
